Source: patent US20210115509A1, “BIOMARKER FOR IDENTIFYING SPECIFIC EXPOSURE TO KETONES AND METHOD OF IDENTIFICATION USING THE SAME” (KOREA INSTITUTE OF SCIENCE AND TECHNOLOGY, priority 2019, published 2021)

Key:
[1] = test system: BEAS-2B human bronchial epithelial cell line; test: MTT assay, cytotoxicity of ketone compounds in BEAS-2B cell line; format: cell-based
Description: BEAS-2B (Korean Cell Line Bank), a human bronchial epithelial cell line, was cultured using RPMI 1640 medium (Gibco, USA) supplemented with 10% FBS until the cells grew to about a confluence of 70 to 80% in a 100 mm dish.
Among ketones belonging to mVOCs (microbial volatile organic compounds) exposed to the environment, acetone, 2-butanone, 2-pentanone, 2-hexanone and 2-heptanone were selected, and the chemicals were dissolved in filtered distilled water (DW). A vehicle concentration was set to 0.1% or less in all experiments.
MTT assay using a BEAS-2B cell line was performed in accordance with the method of Mossman et al. (J. Immunol. Methods, 65, 55-63, 1983).
Specifically, the cells were seeded at a density of 3.5×10^4 cells/well in a 24-well plate and treated with the five ketone compounds dissolved in filtered distilled water, prepared in Example 1-2. After 48 hours, the result was mixed with 5 mg/ml of MTT (3-4,5-dimethylthiazol-2,5-diphenyltetrazolium bromide), added to a tube and incubated at 37° C. for 3 hours. Then, the medium was removed, the formed formazan crystal was dissolved in 500 μl of DMSO, and then 100 μl of the solution was transferred to a 96-well plate to measure an OD (optical density) value at 540 nm.

[2] = test system: BEAS-2B human bronchial epithelial cell line; test: Gene expression change by high-throughput RNA sequencing (NextSeq 500) in ketone-exposed BEAS-2B cells; format: cell-based
Description: RNA was extracted from cell samples of ketone-exposed and non-ketone-exposed groups using a TRIzol reagent (Life Technologies, USA) in accordance with the manufacturer's directions to isolate total RNA and the total RNA was purified using a RNeasy mini kit (Qiagen, USA). The concentration of each total RNA sample was determined by a ND-2000 spectrophotometer (Thermo Inc., DE, USA) as a spectrophotometer and Agilent 2100 Bioanalyzer (Agilent Technologies, USA).
The establishment of libraries from the total RNA obtained in Example 2-1 in the experimental group and the normal control group exposed to the ketones was carried out using a QuantSeq 3′ mRNA-Seq Library Prep Kit (Lexogen, Inc., Austria) in accordance with the manufacturer's directions. 500 ng of the total RNA was hybridized with an oligo-dT primer including an Illumina-compatible sequence at the 5′ end of RNA, followed by reverse transcription. After degradation of the RNA template, a second strand was synthesized using a random primer including an Illumina-compatible linker sequence at the 5′ end thereof. Double-stranded libraries were purified using magnetic beads to remove all reaction components. The library was amplified in order to add the entire adapter sequence required for cluster production, and the completed cDNA library was purified from the PCR components.
Sequencing was performed by high-throughput sequencing as single-end 75 sequencing using a NextSeq 500 (IIlumina, Inc., USA). Read count (RC) data was processed based on the quantile normalization method using EdgeR in R (R development Core Team, 2016) using Bioconductor (Gentleman et al., 2004). Gene classification was based on searches performed on DAVID (http://david.abcc.ncifcrf.gov/) and the Medline database (http://www.ncbi.nlm.nih.gov/).
The extracted data were analyzed through normalization using Agilent GeneSpring GX 12.6.1 (Agilent technologies, CA, USA) to analyze the expression pattern of each gene.

[3] = IC5 conc.: Acetone 5.38, 2-Butanone 22.27, 2-Pentanone 5.24, 2-Hexanone 14.82, 2-Heptanone 5.05 mM
[4] = IC20 conc.: Acetone 71.90, 2-Butanone 106.21, 2-Pentanone 39.38, 2-Hexanone 52.51, 2-Heptanone 20.22 mM

CCCC(C)=O [2-Pentanone, 2-pentanone]
concentration (105) providing a survival rate (viability) of 95% ([1]; human, 48 h): 5240 µM
concentration (1020) providing a survival rate (viability) of 80% ([1]; human, 48 h): 39330 µM
Fold change ADRA2A (NM_000681) [2, 3]: 0.179
Fold change ATRNL1 (NR_074088) [2, 3]: 4.158
Fold change C12orf79 (NR_046159) [2, 3]: 0.213
Fold change C14orf80 (NR_046159) [2, 3]: 0.354
Fold change CALML3 (NM_001286399) [2, 3]: 0.354
Fold change CCDC184 (NM_001013635) [2, 3]: 4.501
Fold change CD37 (NM_001040031) [2, 3]: 2.028
Fold change CDHR1 (NM_001171971) [2, 3]: 0.216
Fold change CHL1 (NM_001253387) [2, 3]: 0.335
Fold change COL4A3 (NM_000091) [2, 3]: 2.229
Fold change CRLF2 (NM_022148) [2, 3]: 0.355
Fold change CSF3R (NM_172313) [2, 3]: 0.354
Fold change DNMBP-AS1 (NR_024130) [2, 3]: 2.406
Fold change EGR1 (NM_001964) [2, 3]: 0.419
Fold change GNA14 (NM_004297) [2, 3]: 8.261
Fold change LOC728752 (NR_036504) [2, 3]: 7.322
Fold change PAX8 (NM_003466) [2, 3]: 2.723
Fold change PRRT3-AS1 (NR_046734) [2, 3]: 2.817
Fold change RBP3 (NM_002900) [2, 3]: 0.354
Fold change SEPT14 (NM_207366) [2, 3]: 0.214
Fold change SERPINA12 (NM_001304461) [2, 3]: 0.354
Fold change SLC13A4 (NM_012450) [2, 3]: 8.995
Fold change SPOCK2 (NM_001244950) [2, 3]: 4.031
Fold change TSPAN1 (NM_005727) [2, 3]: 4.281
Fold change USP12-AB1 (NR_046647) [2, 3]: 7.329
Fold change VIPR†-AS1 (NR_046654) [2, 3]: 0.354
Fold change XIRP1 (NM_001198621) [2, 3]: 0.354
Fold change ZFP69B (NM_023070) [2, 3]: 2.472
Fold change ZNF432 (NM_014650) [2, 3]: 4.086
Fold change ZNF487 (NR_026693) [2, 3]: 0.354
Fold change ADRA2A (NM_000681) [2, 4]: 0.184
Fold change ATRNL1 (NR_074088) [2, 4]: 2.665
Fold change C12orf79 (NR_046159) [2, 4]: 0.216
Fold change C14orf80 (NR_046159) [2, 4]: 0.356
Fold change CALML3 (NM_001286399) [2, 4]: 0.356
Fold change CCDC184 (NM_001013635) [2, 4]: 2.387
Fold change CD37 (NM_001040031) [2, 4]: 3.272
Fold change CDHR1 (NM_001171971) [2, 4]: 0.223
Fold change CHL1 (NM_001253387) [2, 4]: 0.273
Fold change COL4A3 (NM_000091) [2, 4]: 5.033
Fold change CRLF2 (NM_022148) [2, 4]: 0.359
Fold change CSF3R (NM_172313) [2, 4]: 0.356
Fold change DNMBP-AS1 (NR_024130) [2, 4]: 8.289
Fold change EGR1 (NM_001964) [2, 4]: 0.332
Fold change GNA14 (NM_004297) [2, 4]: 6.776
Fold change LOC728752 (NR_036504) [2, 4]: 5.683
Fold change PAX8 (NM_003466) [2, 4]: 2.277
Fold change PRRT3-AS1 (NR_046734) [2, 4]: 3.902
Fold change RBP3 (NM_002900) [2, 4]: 0.356
Fold change SEPT14 (NM_207366) [2, 4]: 0.218
Fold change SERPINA12 (NM_001304461) [2, 4]: 0.356
Fold change SLC13A4 (NM_012450) [2, 4]: 2.153
Fold change SPOCK2 (NM_001244950) [2, 4]: 2.181
Fold change TSPAN1 (NM_005727) [2, 4]: 3.938
Fold change USP12-AB1 (NR_046647) [2, 4]: 2.362
Fold change VIPR†-AS1 (NR_046654) [2, 4]: 0.356
Fold change XIRP1 (NM_001198621) [2, 4]: 0.356
Fold change ZFP69B (NM_023070) [2, 4]: 2.299
Fold change ZNF432 (NM_014650) [2, 4]: 5.290
Fold change ZNF487 (NR_026693) [2, 4]: 0.356

CC(C)=O [Acetone, acetone]
concentration (105) providing a survival rate (viability) of 95% ([1]; BEAS-2B, 48 hours, MTT): 5380 µM
concentration (1020) providing a survival rate (viability) of 80% ([1]; BEAS-2B, 48 hours, MTT): 71900 µM
Fold change ADRA2A (NM_000681) [2, 3]: 0.179
Fold change ATRNL1 (NR_074088) [2, 3]: 3.000
Fold change C12orf79 (NR_046159) [2, 3]: 0.213
Fold change C14orf80 (NR_046159) [2, 3]: 0.354
Fold change CALML3 (NM_001286399) [2, 3]: 0.354
Fold change CCDC184 (NM_001013635) [2, 3]: 12.166
Fold change CD37 (NM_001040031) [2, 3]: 2.781
Fold change CDHR1 (NM_001171971) [2, 3]: 0.409
Fold change CHL1 (NM_001253387) [2, 3]: 0.224
Fold change COL4A3 (NM_000091) [2, 3]: 4.046
Fold change CRLF2 (NM_022148) [2, 3]: 0.355
Fold change CSF3R (NM_172313) [2, 3]: 0.354
Fold change DNMBP-AS1 (NR_024130) [2, 3]: 2.455
Fold change EGR1 (NM_001964) [2, 3]: 0.422
Fold change GNA14 (NM_004297) [2, 3]: 5.492
Fold change LOC728752 (NR_036504) [2, 3]: 4.554
Fold change PAX8 (NM_003466) [2, 3]: 2.753
Fold change PRRT3-AS1 (NR_046734) [2, 3]: 2.261
Fold change RBP3 (NM_002900) [2, 3]: 0.354
Fold change SEPT14 (NM_207366) [2, 3]: 0.214
Fold change SERPINA12 (NM_001304461) [2, 3]: 0.354
Fold change SLC13A4 (NM_012450) [2, 3]: 10.528
Fold change SPOCK2 (NM_001244950) [2, 3]: 5.291
Fold change TSPAN1 (NM_005727) [2, 3]: 5.935
Fold change USP12-AB1 (NR_046647) [2, 3]: 3.620
Fold change VIPR†-AS1 (NR_046654) [2, 3]: 0.354
Fold change XIRP1 (NM_001198621) [2, 3]: 0.354
Fold change ZFP69B (NM_023070) [2, 3]: 2.708
Fold change ZNF432 (NM_014650) [2, 3]: 4.647
Fold change ZNF487 (NR_026693) [2, 3]: 0.354
Fold change ADRA2A (NM_000681) [2, 4]: 0.355
Fold change ATRNL1 (NR_074088) [2, 4]: 2.751
Fold change C12orf79 (NR_046159) [2, 4]: 0.213
Fold change C14orf80 (NR_046159) [2, 4]: 0.354
Fold change CALML3 (NM_001286399) [2, 4]: 0.354
Fold change CCDC184 (NM_001013635) [2, 4]: 4.927
Fold change CD37 (NM_001040031) [2, 4]: 2.526
Fold change CDHR1 (NM_001171971) [2, 4]: 0.429
Fold change CHL1 (NM_001253387) [2, 4]: 0.360
Fold change COL4A3 (NM_000091) [2, 4]: 2.490
Fold change CRLF2 (NM_022148) [2, 4]: 0.357
Fold change CSF3R (NM_172313) [2, 4]: 0.358
Fold change DNMBP-AS1 (NR_024130) [2, 4]: 5.285
Fold change EGR1 (NM_001964) [2, 4]: 0.437
Fold change GNA14 (NM_004297) [2, 4]: 2.289
Fold change LOC728752 (NR_036504) [2, 4]: 4.939
Fold change PAX8 (NM_003466) [2, 4]: 5.800
Fold change PRRT3-AS1 (NR_046734) [2, 4]: 2.061
Fold change RBP3 (NM_002900) [2, 4]: 0.376
Fold change SEPT14 (NM_207366) [2, 4]: 0.214
Fold change SERPINA12 (NM_001304461) [2, 4]: 0.354
Fold change SLC13A4 (NM_012450) [2, 4]: 12.386
Fold change SPOCK2 (NM_001244950) [2, 4]: 5.054
Fold change TSPAN1 (NM_005727) [2, 4]: 2.949
Fold change USP12-AB1 (NR_046647) [2, 4]: 6.910
Fold change VIPR†-AS1 (NR_046654) [2, 4]: 0.354
Fold change XIRP1 (NM_001198621) [2, 4]: 0.354
Fold change ZFP69B (NM_023070) [2, 4]: 4.454
Fold change ZNF432 (NM_014650) [2, 4]: 5.319
Fold change ZNF487 (NR_026693) [2, 4]: 0.354
